Each molecule was assayed against T1, IRAK4 (Homo sapiens, UniProt Q9NWZ3) (assay: Degradation of IRAK4 in SU-DHL-2 cells (flow cytometry)). Details: SU-DHL-2 cells, 24 hours incubation; read-out: SU-DHL-2 DC50.
T1 sequence (Q9NWZ3 1-460): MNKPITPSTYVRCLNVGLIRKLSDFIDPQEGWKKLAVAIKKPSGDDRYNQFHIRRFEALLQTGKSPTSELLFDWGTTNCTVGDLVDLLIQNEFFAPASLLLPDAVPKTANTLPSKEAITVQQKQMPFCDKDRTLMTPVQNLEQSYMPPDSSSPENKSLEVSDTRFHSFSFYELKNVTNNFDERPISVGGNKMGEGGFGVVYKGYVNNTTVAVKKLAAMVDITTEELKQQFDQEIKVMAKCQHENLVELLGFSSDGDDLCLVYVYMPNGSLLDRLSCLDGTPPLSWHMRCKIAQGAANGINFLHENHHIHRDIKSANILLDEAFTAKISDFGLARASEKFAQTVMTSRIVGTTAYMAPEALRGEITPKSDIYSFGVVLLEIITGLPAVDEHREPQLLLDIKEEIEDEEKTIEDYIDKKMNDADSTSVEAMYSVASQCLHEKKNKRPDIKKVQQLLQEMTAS
Type: cell-based
Parameters: The degradation level of IRAK4 protein in SU-DHL-2 cell line by the compounds was detected by flow cytometry; endogenous in cells; host or cells: SU-DHL-2; OCI-LY3
Description: The degradation level of IRAK4 protein in SU-DHL-2 cell line by the compounds was detected by flow cytometry.
Step 2: On day 1, the cells were seeded at a density of 2 × 10^5 cells per well in 100 µL in a 96-well plate. The compounds were dissolved in DMSO to a final concentration of 10 mM, and then diluted with culture medium at a 1:5 concentration gradient to prepare 10 concentrations. The diluted solutions were added to the cells to obtain a maximum final concentration of 2 µM. Wells containing cells treated with 0.1% DMSO served as the […] The cells were incubated at 37°C in a 5% CO2 incubator for 24 hours.
Step 3: After centrifugation, the cells were washed with FACS buffer. The cells were stained for viability discrimination using the LIVE/DEAD™ Fixable Blue Dead Cell Stain Kit, and surface staining of monocytes was performed with PE Mouse Anti-Human CD14, followed by incubation at 4°C for 30 minutes.
Step 4: After centrifugation, the cells were washed with FACS buffer. Fix buffer I, equal in volume to the cultured cells, was added, and the cells were fixed at 37°C for 10 minutes.
Step 5: After centrifugation, the cells were washed with FACS buffer. 150 µL of Perm III reagent was added, and the cells were incubated at 4°C for 30 minutes to permeabilize the membranes. After centrifugation, the cells were washed with FACS buffer.
Flow cytometry analysis was performed using a flow cytometer.
The flow cytometry data were analyzed using Flowjo software. Data presentation and DC50 (half-maximal degradation concentration) calculation were performed using Prism 8.0.2 (GraphPad).

`Cn1c(=O)n(C2CCC(=O)NC2=O)c2cccc(C#CCOCCN3CCC4(CCC(n5cc(NC(=O)c6cnn7ccc(N8C[C@H]9C[C@@H]8CO9)nc67)c(C(F)F)n5)CC4)CC3)c21` (some centres unmarked) [Example 37] and `Cn1c(=O)n(C2CCC(=O)NC2=O)c2cccc(C#CCOC3CC(CN4CCC5(CCC(n6cc(NC(=O)c7cnn8ccc(N9C[C@H]%10C[C@@H]9CO%10)nc78)c(C(F)F)n6)CC5)CC4)C3)c21` (some centres unmarked) [Example 40] are within 1.5-fold of each other in DC50: 24 nM for the first, 33 nM for the second.

Same assay, conditions: read-out: SU-DHL-2 DC50

Compared with `COc1cc2nn(C3CCC4(CC3)CCN(CC3CCN(c5ccc6c(c5)C(=O)N(C5CCC(=O)NC5=O)C6=O)CC3)CC4)cc2cc1NC(=O)c1cnn2cccnc12` (centres unmarked) [Example 48], `COc1cc2nn(C3CCC4(CC3)CCN(CC3CCN(c5ccc6c(c5)C(=O)N(C5CCC(=O)NC5=O)C6=O)CC3)CC4)cc2cc1NC(=O)c1cnc2cccnn12` (centres unmarked) [Example 67] is 45-fold higher in DC50: 1 nM for the first, 45 nM for the second.

First: Cn1c(=O)n(C2CCC(=O)NC2=O)c2cccc(C#CC(C)(C)N3CC[C@@H](C(=O)N4CCC5(CC4)CC(n4cc(NC(=O)c6cnn7ccc(N8C[C@H]9C[C@@H]8CO9)nc67)c(C(F)F)n4)C5)C3)c21 (some centres unmarked) [Example 54]
Second: Cn1c(=O)n(C2CCC(=O)NC2=O)c2cccc(C#CC(C)(C)N3CC[C@H](C(=O)N4CCC5(CC4)CC(n4cc(NC(=O)c6cnn7ccc(N8C[C@H]9C[C@@H]8CO9)nc67)c(C(F)F)n4)C5)C3)c21 (some centres unmarked) [Example 55]
The DC50 of the first is 2.4-fold higher: 17 nM for the first, 7 nM for the second.

Compared with `Cn1c(=O)n(C2CCC(=O)NC2=O)c2cccc(C#CCN3CC[C@H](C(=O)N4CCC5(CC4)CC(n4cc(NC(=O)c6cnn7ccc(N8C[C@H]9C[C@@H]8CO9)nc67)c(C(F)F)n4)C5)C3)c21` (some centres unmarked) [Example 59], `Cn1c(=O)n(C2CCC(=O)NC2=O)c2cccc(C#CCN3CC(C(=O)N4CCC5(CC4)CC(n4cc(NC(=O)c6cnn7ccc(N8C[C@H]9C[C@@H]8CO9)nc67)c(C(F)F)n4)C5)C3)c21` (some centres unmarked) [Example 58] is 1.7-fold higher in DC50: 3 nM for the first, 5 nM for the second.

Going from `Cn1c(=O)n(C2CCC(=O)NC2=O)c2cccc(C#CCOC3CCN(C(=O)N4CCC5(CCC(n6cc(NC(=O)c7cnn8ccc(N9C[C@H]%10C[C@@H]9CO%10)nc78)c(C(F)F)n6)CC5)CC4)CC3)c21` (some centres unmarked) [Example 43] to `Cn1c(=O)n(C2CCC(=O)NC2=O)c2cccc(C#CCOC3CN(C(=O)N4CCC5(CCC(n6cc(NC(=O)c7cnn8ccc(N9C[C@H]%10C[C@@H]9CO%10)nc78)c(C(F)F)n6)CC5)CC4)C3)c21` (some centres unmarked) [Example 39], the DC50 falls from 61 nM to 17 nM (3.6-fold).

Going from `Cn1c(=O)n(C2CCC(=O)NC2=O)c2cccc(C#CCOC3CC(N4CCC5(CCC(n6cc(NC(=O)c7cnn8ccc(N9C[C@H]%10C[C@@H]9CO%10)nc78)c(C(F)F)n6)CC5)CC4)C3)c21` (some centres unmarked) [Example 38] to `Cn1c(=O)n(C2CCC(=O)NC2=O)c2cccc(C#CCOC3CCC(N4CCC5(CC4)CC(n4cc(NC(=O)c6cnn7ccc(N8C[C@H]9C[C@@H]8CO9)nc67)c(C(F)F)n4)C5)CC3)c21` (some centres unmarked) [Example 33], the DC50 falls from 68 nM to 6.5 nM (10-fold).

First: Cn1c(=O)n(C2CCC(=O)NC2=O)c2cccc(C#CCOC34CCC(C(=O)N5CCC6(CC5)CC(n5cc(NC(=O)c7cnn8ccc(N9C[C@H]%10C[C@@H]9CO%10)nc78)c(C(F)F)n5)C6)(CC3)CC4)c21 (some centres unmarked) [Example 51]
Second: Cn1c(=O)n(C2CCC(=O)NC2=O)c2cccc(C#CCO[C@H]3CC[C@@H](C(=O)N4CCC5(CC4)CC(n4cc(NC(=O)c6cnn7ccc(N8C[C@H]9C[C@@H]8CO9)nc67)c(C(F)F)n4)C5)CC3)c21 (some centres unmarked) [Example 72]
The DC50 of the first is 1.8-fold higher: 7 nM for the first, 4 nM for the second.

`Cn1c(=O)n(C2CCC(=O)NC2=O)c2cccc(C#CC(C)(C)N3CC(C(=O)N4CCC5(CC4)CC(n4cc(NC(=O)c6cnn7ccc(N8C[C@H]9C[C@@H]8CO9)nc67)c(C(F)F)n4)C5)C3)c21` (some centres unmarked) [Example 50] and `Cn1c(=O)n(C2CCC(=O)NC2=O)c2cccc(C#CCC3CCC(N4CCC5(CC4)CC(n4cc(NC(=O)c6cnn7ccc(N8C[C@H]9C[C@@H]8CO9)nc67)c(C(F)F)n4)C5)CC3)c21` (some centres unmarked) [Example 35] are within 1.5-fold of each other in DC50: 4 nM for the first, 5 nM for the second.

`COc1cc2nn(C3CC4(CCN(CC5CC(OCC#Cc6cccc7c6n(C)c(=O)n7C6CCC(=O)NC6=O)C5)CC4)C3)cc2cc1C(=O)Nc1cnc2cccnn12` (centres unmarked) [Example 65] showed a DC50 of 2.8 nM.

From patent EP4656640A1, “IRAK4 DEGRADER AND USE THEREOF” (Shanghai Qilu Pharmaceutical Research and Development …, priority 2023, dated 2024)
